Test results reported in US7534606B2, “Placental stem cell and methods thereof” (National Health Research Institutes, priority 2004, dated 2009).
Read-outs that look alike come from different tables or passages of the source.

Columns and labels:
[1] = system: human marrow stromal cells; settings: Deng et al. 2001; cited from earlier work
placental stem cells [2] = assay type: cell-based
Method: Immunocytochemistry and immunofluorescence and RT-PCR. Cultured cells were fixed with 4% paraformaldehyde for 5 minutes at room temperature and permeabilized with 0.1% Triton-X 100 for 20 minutes. Slides were then incubated sequentially with primary antibody overnight at 4° C. For immunocytochemistry, primary antibodies against NSE (Sigma) (1:25) was applied, followed by biotinylated anti-rabbit antibody and an avidin-biotin conjugate of hourseradish peroxidase (Vector Laboratories, Burlingame, Calif., USA). For immunofluorescence staining, primary antibodies against NeuN (Chemicon International Inc., Temecula, Calif., USA) (1:100), Nestin (BD Biosciences) (1:100), GFAP (glial fibrillary acidic protein, Chemicon International Inc.) (1:100), MAP2 (microtubule-associated protein 2, Chemicon International Inc.) (1:200), and NG2 (Chemicon International Inc.) (1:50) were used. Cy3 or fluorescein-labeled secondary antibodies were then applied for 1 hour at 37° C., and stained with 4′, 6-diamino-2-phenylindole (DAPI) (KPL Inc. Gaithersburg, Mass., USA) to identify cell nuclei. Cells were visualized by confocal fluorescence microscopy (Zeiss, LSM 510).
For RT-PCR, total RNA was isolated from cultured cells using Purescript (Gentra System, Minneapolis, Minn., USA), and 2 μg of total RNA was used for reverse transcription using Superscript II (Invitrogen, Carlsbad, Calif., USA). The cDNA was synthesized using Taq Platinum (Invitrogen) and 0.025 μg/μl oligo(dT). An equal volume of each sample was used to amplify human genes with 1 μM of each of the following primers: for the human nestin gene 5′-CCC TGA CCA CTC CAG TTT A-3′ and 5′-GAG TCC TGG ATT TCCTTC-3′; for the human Oct-4 gene 5′-GTGAAGCTGGAGAAGGAGAAGCTG-3′ and 5′-CAAGGGCCGCAGCTTACACATG-3′; and for the neurofilament light-chain (NF-L) gene 5′-CCC GAC TCA GTT TCA CC-3′ and 5′-CAG CCT TAG ACG CCT C-3′. Human glyceraldehyde-3-phosphate dehydrogenase (GAPDH) primers (Clontech, Palo Alto, Calif., USA) were used as internal controls for the PCR reactions. The cDNA from each sample was amplified for 30 cycles (1 min at 94° C., 1 min at 65° C., and 1 min at 72° C.). The PCR products were then separated by electrophoresis on 1.5% agarose gels. The sequence of each PCR product was confirmed using automatic sequencing.
Placental stem cells obtained according to Example 1 were plated on 35 mm culture dishes without coating, or if coated, with fibronectin, gelatin, or poly-L-Lysine (Sigma). Cells were cultured in serum-free DMEM-LG (Gibco) at various densities and exposed to either 10 ng/ml basic fibroblastic growth factor (b-FGF)/20 ng/ml epidermal growth factor (EGF) (both from R&D), retinoic acid (RA) (Sigma) at 10^−6M, β-mercaptoethanol/dimethysulfoxide/butylated hydroxyanisole (1×10^−5M βME/2% DMSO/100 μM BHA) (Sigma), or 0.5 mM 1-methyl-3-isobutylxanthine (IBMX, Sigma) for 3 to 6 days. Cells were then harvested for RT-PCR and immunocytochemical analysis as described above.
Differentiation to neural-like cells was quantified as a percentage of the total number of […] stem cells grown under differentiation conditions. Cells were stained for NSE expression and analyzed under an invert microscope. Five non-overlapping low power images were captured from each sample. […] Total cell count was determined by staining with 4′,6-diamidino-2-phenylindole (DAPI), which stains nuclei specifically, or with anti-human nuclei antibody (1:50) (Chemicon International Inc.).

placental stem cells [3] = assay type: cell-based; settings: after 24 hours of treatment; three independent experiments
[4] = IBMX-treated cultures, immunofluorescence

Row | SMILES | expression of GFAP [1] | expression of NSE [1] | morphological changes (cytoplasm retracted, extensions) (placental stem cells [2]; 3 to 6 days in medium, RA 10^−6M, IBMX 0.5 mM, compared with expansion medium) | NSE expression compared with control cells (placental stem cells [2]; 3 to 6 days in medium, immunocytochemical staining) | astrocytes (GFAP) of the total cell count (placental stem cells [2]; [4]) | neurons (MAP2) of the total cell count (placental stem cells [2]; [4]) | oligodendrocytes (NG2) of the total cell count (placental stem cells [2]; [4]) | placental stem cells differentiated (placental stem cells [2]; after 5 days of treatment, three independent experiments) | expression of neural filament light chain (NF-L) by RT-PCR (placental stem cells [2]; after five days of treatment) | dose dependence of induced differentiation (placental stem cells [2]; data not shown) | effect of removal from the culture medium (placental stem cells [2]; data not shown) | time to first morphological changes (placental stem cells [2]; in a portion of placental stem cells) | placental stem cells differentiated (placental stem cells [3]) | differentiation into neural-like cells (placental stem cells [2]; after 6 days of incubation, RA 10^−6M, IBMX 0.5 mM, retracted cell bodies and positive NSE staining, % of total cells)
1 | CC(C)Cn1c(=O)n(C)c(=O)c2[nH]cnc21 [IBMX, 1-methyl-3-isobutylxanthine] | no expression of GFAP | increased expression of NSE | morphological changes | higher levels of NSE | ~1% | approximately 16% | ~17% | more than 40% | detected | dose-dependent effect | reversion of the cells to their original phenotype | 2 hours | 7% | –
2 | CC1=C(/C=C/C(C)=C/C=C/C(C)=C/C(=O)O)C(C)(C)CCC1 [RA, retinoic acid] | – | – | – | – | – | – | – | – | – | – | – | – | – | about 10%
